Results taken from US5516790A, “Synthesis and application of alkyl-substituted dibenzofurans as antitumorigenic agents” (Texas A&M University System Technology Licensing Office, priority 1994, dated 1996).

Experiments:
female rat uterus = test: Antiestrogenic effect on uterine wet weight, immature female Sprague-Dawley rats (Example 8); assay type: in vivo
estrogen receptor (ER) = test: Uterine estrogen receptor levels, hydroxyapatite assay (Example 8); assay type: in vivo, female Sprague-Dawley rats; settings: for ED40-60 for Inhibition, ERc / ED40-60 for Inhibition, ERn: cotreatment with 17β-estradiol
Procedure: A second group of animals was similarly treated with corn oil, TCDD, MCDF, or TCDD plus MCDF, all administered in corn oil at 10 ml/kg and terminated 72 hours later.
(§1) The animals were terminated by cervical dislocation. Livers were perfused with ice-cold TEDG buffer (10 mM Tris-HCl, 1.5 mM EDTA-4Na, 1 mM dithiothreitol, 10% glycerol (v/v), pH 7.4). Following perfusion in situ, livers were removed, weighed, and homogenized in ice-cold TEDG buffer. Uteri were also removed, weighed, and homogenized in ice-cold buffer. The homogenates were then centrifuged at 800×g ([…]) for 15 minutes and the nuclear pellets were stored at -80° C. The supernatants were further centrifuged at 180,000× g for 1.5 hours. The cytosolic supernatant was also stored at -80° C. Estrogen and progesterone receptor levels were determined within 7 days.
(§2) Estrogen (ER) and progesterone (PR) receptor levels were determined by the hydroxyapatite assay as described by Clark et al. (J. Steroid Biochem. 16:323-328, 1982) and incorporated herein by reference. […] Following the incubations, samples were counted and specific binding was calculated by subtraction of nonspecific from total binding. Assuming one steroid molecule binds to one estrogen/progesterone receptor, the number of moles of receptor can be calculated given the specific activity of the radioligand. The data presented in Tables 1 through 6 are means ± SD using at least four animals per treatment group. Significant differences were determined by analysis of variance.

[1] = tested on: progesterone receptor (PR); test: Uterine progesterone receptor levels, hydroxyapatite assay (Example 8); assay type: in vivo, female Sprague-Dawley rats; settings: for ED40-60 for Inhibition, PRc / ED40-60 for Inhibition, PRn: cotreatment with 17β-estradiol
Procedure: as §1, §2

34-kDa protein = assay type: cell-based, human;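 on Secreted 34-kDa protein: MCF-7 human breast cancer cells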
Procedure: (§3) On day 0, the media was removed and the cells were rinsed two times with PBS. […] The cells were allowed to incubate for 48 h. […] After 6 h, the media was removed, 10 μl was counted and the remaining media was used for analysis of secreted proteins.
(§4) The secreted proteins were analyzed by sodium dodecyl sulfate (SDS) polyacrylamide gel electrophoresis; 30 μl of the media was mixed with an equal volume of buffer containing SDS, β-mercaptoethanol, glycerol, Tris and bromophenol blue. The samples were heated for 2 minutes in a boiling water bath and 50 μl of each sample was loaded onto a 1.5 mm thick 12% acrylamide slab gel (containing 0.075% bisacrylamide) with a 3% stacking gel (containing 0.15% bisacrylamide). The gels were run at […] overnight and processed for fluorography (using Enhance: Dupont) and exposed to Kodak X-OMAT film for 10 days at -80° C. The molecular weights of the proteins were estimated by their mobility relative to a set of standard proteins with known molecular weights.
(§5) The incorporation of ^35 S-methionine into the 34-kDa, 52-kDa and 160-kDa proteins was estimated by scanning the films using a Zeineh Soft Laser Scanning Densitometer (model SLR-20/10) from Biomedical Instruments,Inc. The percentage of the area of the scans due to the particular protein was then compared between the experimental and control samples and the results are presented as means ± SD for at least three samples per treatment group.

160-kDa protein = assay type: cell-based, human;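 on Secreted 160-kDa protein: MCF-7 human breast cancer cells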
Procedure: as §3, §4, §5

52-kDa protein = assay type: cell-based, human; settings: mcf-7 cells, 48 h, 0.001 µM
Procedure: as §3, §4, §5

[2] = Table 2: 50 μmol/kg + E-2 (2 × 10 μg/rat)
[3] = Table 2: compound alone, 50 μmol/kg (17β-estradiol: 2 × 10 μg/rat)
[4] = Table 3: 50 μmol/kg + E-2 (2 × 10 μg/rat)
[5] = Table 3: compound alone, 50 μmol/kg (17β-estradiol: 2 × 10 μg/rat)
[6] = dose-response, 2 μmol/kg + 17β-estradiol (2 × 10 μg/rat)
[7] = dose-response, 10 μmol/kg + 17β-estradiol (2 × 10 μg/rat)
[8] = dose-response, 25 μmol/kg + 17β-estradiol (2 × 10 μg/rat)
[9] = dose-response, 50 μmol/kg + 17β-estradiol (2 × 10 μg/rat)
[10] = 17β-estradiol alone, 1 nM, 2880 min
[11] = Table 9, 17β-estradiol alone (1 nM), 2880 min

Row | Structure (SMILES) | Uterine Wet Weight (female rat uterus; [6]) [% body wt] | Uterine Wet Weight (female rat uterus; [7]) [% body wt] | Uterine Wet Weight (female rat uterus; [8]) [% body wt] | Uterine Wet Weight (female rat uterus; [9]) [% body wt] | ED40-60 for Inhibition, ERc (estrogen receptor (ER)) [µmol/kg] | ED40-60 for Inhibition, ERn (estrogen receptor (ER)) [µmol/kg] | Estrogen Receptor Levels, Cytosolic (estrogen receptor (ER); [6]) [fmol/mg protein] | Estrogen Receptor Levels, Nuclear (estrogen receptor (ER); [6]) [fmol/mg protein] | Estrogen Receptor Levels, Cytosolic (estrogen receptor (ER); [7]) [fmol/mg protein] | Estrogen Receptor Levels, Nuclear (estrogen receptor (ER); [7]) [fmol/mg protein] | Estrogen Receptor Levels, Cytosolic (estrogen receptor (ER); [8]) [fmol/mg protein] | Estrogen Receptor Levels, Nuclear (estrogen receptor (ER); [8]) [fmol/mg protein] | Estrogen Receptor Levels, Cytosolic (estrogen receptor (ER); [9]) [fmol/mg protein] | Estrogen Receptor Levels, Nuclear (estrogen receptor (ER); [9]) [fmol/mg protein] | ED40-60 for Inhibition, PRc [1] [µmol/kg] | ED40-60 for Inhibition, PRn [1] [µmol/kg] | Progesterone Receptor Levels, Cytosolic [1, 6] [fmol/mg protein] | Progesterone Receptor Levels, Nuclear [1, 6] [fmol/mg protein] | Progesterone Receptor Levels, Cytosolic [1, 7] [fmol/mg protein] | Progesterone Receptor Levels, Nuclear [1, 7] [fmol/mg protein] | further results
1 | Cc1cc2c(cc1Cl)oc1cc(Cl)cc(Cl)c12 [8-Methyl-1,3,7-triCDF, 8-Methyl-1,3,7-trichlorodibenzofuran] | – | – | – | – | – | – | – | – | – | – | – | – | – | – | – | – | – | – | – | – | Uterine Wet Weight (female rat uterus; [2]): 0.181 ± 0.007 % body wt; Uterine Wet Weight (female rat uterus; [3]): 0.127 ± 0.019 % body wt; Estrogen Receptor Levels, Cytosolic (estrogen receptor (ER); [2]): 119.0 ± 14.3 fmol/mg protein; Estrogen Receptor Levels, Nuclear (estrogen receptor (ER); [2]): 51.1 ± 7.4 fmol/mg protein; Estrogen Receptor Levels, Cytosolic (estrogen receptor (ER); [3]): 72.8 ± 8.3 fmol/mg protein; Estrogen Receptor Levels, Nuclear (estrogen receptor (ER); [3]): 26.4 ± 5.1 fmol/mg protein; Progesterone Receptor Levels, Cytosolic [1, 2]: 1025 ± 151 fmol/mg protein; Progesterone Receptor Levels, Nuclear [1, 2]: 952 ± 113 fmol/mg protein; Progesterone Receptor Levels, Cytosolic [1, 3]: 503 ± 63 fmol/mg protein; Progesterone Receptor Levels, Nuclear [1, 3]: 795 ± 92 fmol/mg protein
2 | Cc1cc2c(cc1Cl)oc1c(Cl)c(Cl)c(Cl)cc12 [8-Methyl-2,3,4,7-tetraCDF, 8-Methyl-2,3,4,7-tetrachlorodibenzofuran] | 0.179 ± 0.009 | 0.201 ± 0.008 | 0.181 ± 0.002 | 0.172 ± 0.005 | 10 | 25 | 183.4 ± 9.2 | 83.2 ± 4.2 | 151.9 ± 9.1 | 82.8 ± 5.0 | 137.4 ± 6.9 | 69.0 ± 4.1 | 114.9 ± 5.8 | 69.2 ± 4.2 | 10 | 10 | 2167 ± 152 | 866 ± 52 | 1670 ± 117 | 701 ± 35 | Uterine Wet Weight (female rat uterus; [4]): 0.245 ± 0.006 % body wt; Uterine Wet Weight (female rat uterus; [5]): 0.094 ± 0.006 % body wt; Estrogen Receptor Levels, Cytosolic (estrogen receptor (ER); [4]): 107.2 ± 5.4 fmol/mg protein; Estrogen Receptor Levels, Nuclear (estrogen receptor (ER); [4]): 43.7 ± 2.2 fmol/mg protein; Estrogen Receptor Levels, Cytosolic (estrogen receptor (ER); [5]): 66.8 ± 3.3 fmol/mg protein; Estrogen Receptor Levels, Nuclear (estrogen receptor (ER); [5]): 30.9 ± 1.6 fmol/mg protein; Progesterone Receptor Levels, Cytosolic [1, 4]: 725 ± 51 fmol/mg protein; Progesterone Receptor Levels, Nuclear [1, 4]: 360 ± 25 fmol/mg protein; Progesterone Receptor Levels, Cytosolic [1, 5]: 616 ± 43 fmol/mg protein; Progesterone Receptor Levels, Nuclear [1, 5]: 161 ± 13 fmol/mg protein; Progesterone Receptor Levels, Cytosolic [1, 8]: 1405 ± 98 fmol/mg protein; Progesterone Receptor Levels, Nuclear [1, 8]: 697 ± 56 fmol/mg protein; Progesterone Receptor Levels, Cytosolic [1, 9]: 1098 ± 88 fmol/mg protein; Progesterone Receptor Levels, Nuclear [1, 9]: 514 ± 41 fmol/mg protein
3 | Cc1cc2c(cc1Cl)oc1cc(Cl)c(Cl)cc12 [8-methyl-2,3,7-triCDF, 8-Methyl-2,3,7-Trichlorodibenzofuran] | 0.192 ± 0.013 | 0.211 ± 0.019 | 0.192 ± 0.004 | 0.224 ± 0.012 | 2 | 10 | 131.8 ± 6.6 | 90.2 ± 5.4 | 125.3 ± 6.3 | 76.8 ± 3.8 | 117.5 ± 5.9 | 72.8 ± 3.6 | 107.1 ± 5.4 | 67.3 ± 4.0 | 2 | 10 | 1673 ± 117 | 835 ± 50 | 1596 ± 112 | 685 ± 62 | Progesterone Receptor Levels, Cytosolic [1, 8]: 1461 ± 102 fmol/mg protein; Progesterone Receptor Levels, Nuclear [1, 8]: 631 ± 37 fmol/mg protein; Progesterone Receptor Levels, Cytosolic [1, 9]: 856 ± 60 fmol/mg protein; Progesterone Receptor Levels, Nuclear [1, 9]: 605 ± 66 fmol/mg protein
4 | C[C@]12CC[C@@H]3c4ccc(O)cc4CC[C@H]3[C@@H]1CC[C@@H]2O [17β-Estradiol] | – | – | – | – | – | – | – | – | – | – | – | – | – | – | – | – | – | – | – | – | Secreted 34-kDa protein (34-kDa protein; [10]): 282 ± 17.6% of the values for control; Protein Secretion, 34-kDa (34-kDa protein; [11]): 201 % of Control; increase in secretion of the 34-kDa protein (34-kDa protein; mcf-7 cells, 48 h, 0.001 µM): 3.72 fold; Secreted 160-kDa protein (160-kDa protein; [10]): 371 ± 27.1% of the values for control; Protein Secretion, 160-kDa (160-kDa protein; [11]): 228 % of Control; increase in secretion of the 160-kDa protein (160-kDa protein; mcf-7 cells, 48 h, 0.001 µM): 3.81 fold; increase in secretion of the 52-kDa protein (52-kDa protein): 4.97 fold
